{"source": "patent US20060039985A1", "about": "“Methotrexate compositions” (priority 2004, published 2006)", "assay_type_in_all_cases": "physicochemical", "key": {"[1]": {"assay": "Karl Fisher moisture determination", "conditions": "Karl Fisher potentiometric titration; powder in formamide; 0.6 % RSD", "protocol": "Moisture content in methotrexate powder was measured by Karl Fisher potentiometric titration by direct injection using a Mitsubishi model CA-06 moisturemeter (Mitsubishi Kasei Corporation, Japan). The powder was dissolved/dispersed in 2.5 mL formamide and 1 mL of the solution was injected […]. Titration checks were made by injecting water standards, Mitsubishi (catalogue number MC02020), at several time intervals."}, "[2]": {"assay": "Modulated differential scanning calorimetry (MDSC) study", "conditions": "MDSC heating, 2° C./minute", "procedure": "MDSC studies were performed using a TA 2920 instrument (TA instruments, New Castle, Del.). A sample (5-10 mg) of the powder was filled into an aluminum DSC pan in a glove box, with the relative humidity maintained under 1%, and hermetically sealed using a sample encapsulation press. Helium was used as a purge at 30 cm^3/minute; the Refrigerated Control System (RCS) used helium at a flow rate of 110 cm^3/minute. The MDSC protocol was as follows: equilibrate at 0° C.; modulate ±0.318° C. every 60 seconds; ramp 2° C./minute to 200° C.; isothermal for 5 minutes; ramp 10° C./minute to 0° C.; isothermal for 5 minutes; modul 0.318° C. every 60 seconds; ramp 2° C./minute to 280° C."}, "[3]": {"assay": "Solubility in REDISPERSE organic solvent (noted in the PLM study)", "protocol": "PLM and hot stage microscopy studies were done using a Nikon (Melville, N.Y.) Optihot-2 polarizing microscope. A Mettler (Columbus, Ohio) Toledo FP82HT hot stage attachment provided the variable temperature analyses from room temperature to 250° C. at 10° C. per minute. Photomicrographs were taken using a Nikon 35 mm attachment using either a 20× or 40× objective. Microscope slides and coverslips were cleaned with methanol prior to use.\nBirefringence persisted after quench cooling from […]"}, "[4]": {"assay": "Dynamic vapor sorption (DVS) study", "conditions": "25° C.", "protocol": "Water sorption/desorption studies were conducted on a DVS-1000 moisture balance system (Surface Measurement Systems, UK). A sample (15-30 mg) was initially dried at 25° C. until a constant weight was achieved. The relative humidity was increased from 0 to 90% (with 5% relative humidity increments). Each successive increment was initiated when the change in weight at a given relative humidity was smaller than 5 μg over 5 minutes. Once the sample was exposed to 90% relative humidity, the process was reversed from 90% to 0 relative humidity (with 10% relative humidity increments)."}}}
{"compound": "CN(Cc1cnc2nc(N)nc(N)c2n1)c1ccc(C(=O)N[C@@H](CCC(=O)O)C(=O)O)cc1", "note": "[methotrexate]", "values": [{"measurement": "Moisture content", "setting": "[1]", "value": 7.1, "unit": "%"}, {"measurement": "Decomposition temperature", "setting": "[2]", "value": "246-250 °C"}, {"measurement": "Solubility in REDISPERSE brand of solvent", "setting": "[3]", "value": "insoluble"}, {"measurement": "Hygroscopicity compared to crystalline material", "setting": "[4]", "value": "hygroscopic than the crystalline material"}, {"measurement": "Relative humidity at which signs of moisture-induced crystallization are observed in DVS time profile", "setting": "[4]", "value": 70, "unit": "% relative humidity"}, {"measurement": "Hysteresis upon desorption of water", "setting": "[4]; 90% to 0 relative humidity", "value": "no hysteresis"}, {"measurement": "Absorption of water, % of its weight", "setting": "[4]; at 90% relative humidity", "value": "about 13.5%"}, {"measurement": "Storage relative humidity for long term stability of liquid crystalline phase", "setting": "[4]; suggested by DVS data", "value": "below 70 % relative humidity"}]}
